Laboratory results: PubChem BioAssay AID2127 (Sanford-Burnham Center for Chemical Genomics, 2009)
pIC50: −log10 of the molar value. Activity calls are given as the source filed them.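 Rule for the calls: active = half-maximal inhibitory concentration below a set limit; inactive = the rest.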

Biological target: E3 ubiquitin-protein ligase SIAH1 (Homo sapiens) (UniProt Q8IUQ4)
Test: Siah-1 peptide-binding antagonists, alternate label, dose response, artefact control for Siah-1 antagonist project, biochemical, fluorescence polarization, fluorescein-plectin (AID 2127)
Settings: Siah-1/fluorescein-plectin binding

SMILES	IC50	pIC50
CCN(CC)CCOC(=O)c1ccc(N/C=C(/C#N)c2nc(-c3cc4ccccc4oc3=O)cs2)cc1	> 200 µM (inactive)	
O=C(O)c1cc(Cl)c(Cl)cc1C(=O)Nc1cccc2cccnc12	> 200 µM (inactive)	
N#C/C(=C\c1c(F)cccc1Cl)C(=O)NC1CC1	> 200 µM (inactive)	
O=S(=O)(Nc1nc2ccccc2nc1Nc1ccc(N2CCOCC2)cc1)c1cc(Cl)ccc1Cl	> 200 µM (inactive)	
COc1ccc(C(C(=O)NCc2ccccc2)N(Cc2ccco2)C(=O)c2cnccn2)cc1 (stereo not given)	> 200 µM (inactive)	
COc1ccc(CCNC(=O)c2ccc(S(=O)(=O)N(C)c3ccccc3)cc2)cc1OC	> 200 µM (inactive)	
O=S(=O)(O)c1cc(O)c2c(O)c(N=Nc3cc(Cl)ccc3O)c(S(=O)(=O)O)cc2c1	> 200 µM (inactive)	
Oc1ccc(N=Cc2sc3ccccc3c2Cl)cc1	> 200 µM (inactive)	
COc1cccc(CCC(=O)N(C)C2CCCN(Cc3ccccc3F)C2)c1 (stereo not given)	> 200 µM (inactive)	
CCC1=Nc2cc(C(=O)O)ccc2Sc2ccccc21	> 200 µM (inactive)	
CCOC(=O)/C(C#N)=c1/s/c(=C2\C=Cc3ccccc3N2CC)c(=O)n1CC	> 200 µM (inactive)	
CSc1ccccc1C(=O)NC(C)c1ccc(-n2ccnc2)cc1 (stereo not given)	> 200 µM (inactive)	
COCCn1nnnc1C(c1cc2ccc(OC)cc2[nH]c1=O)N1CCc2ccccc2C1 (stereo not given)	> 200 µM (inactive)	
CCN(CC)c1ccc(C=N/C(C#N)=C(\N)C#N)cc1	> 200 µM (inactive)	
Cc1ccc(NC(=O)CCC(=O)NNC(=O)c2ccccc2[N+](=O)[O-])c(C)c1	> 200 µM (inactive)	
CC1CCN(S(=O)(=O)c2nnc(NC(=O)c3cccc(Cl)c3)s2)CC1	> 200 µM (inactive)	
CC(C)COc1ccc(-c2nn(-c3ccccc3)cc2/C=C2/SC(=S)N(CC(=O)O)C2=O)cc1	> 200 µM (inactive)	
O=S(=O)(Nc1c(S(=O)(=O)c2ccccc2)c2nc3ccccc3nc2n1C1CCCCC1)c1ccccc1	> 200 µM (inactive)	
O=C(O)c1cc(O)c2c(c1)C(=O)c1cccc(O)c1C2=O	inactive	
Cc1ccc(C(=O)COc2ccccc2C(=O)Nc2ccccc2)cc1	> 200 µM (inactive)	
CCCCn1c(NS(=O)(=O)c2ccccc2)c(C(=O)OCC)c2nc3ccccc3nc21	> 200 µM (inactive)	
O=C1CCCC(O)=C1N=Nc1ccc(C(=O)O)cc1	> 200 µM (inactive)	
CN(C)c1cccc2c(C=C(C#N)C#N)ccc(N(C)C)c12	> 200 µM (inactive)	
Cc1c(C(=O)O)sc2nc(CSc3ncc(C(F)(F)F)cc3Cl)[nH]c(=O)c12	> 200 µM (inactive)	
N#Cc1c(NC(=O)c2ccc(Br)o2)n(-c2ccccc2)c2nc3ccccc3nc12	> 200 µM (inactive)	
CC(=O)c1ccc(NC(=O)CC2Nc3cccc4cccc(c34)NC2=O)cc1 (stereo not given)	> 200 µM (inactive)	
CN1C(=O)NC(c2ccccc2[N+](=O)[O-])C2=C1CCCC2=O (stereo not given)		5.27
CCOC(=O)C1=C(C)N=c2s/c(=C\c3ccc(OCC(=O)O)cc3)c(=O)n2C1c1ccc(Cl)cc1 (stereo not given)	> 200 µM (inactive)	

SMILES	IC50	pIC50
COc1ccc(CCNC(=O)CCC(=O)N2CCOc3ccc(C)cc32)cc1OC	> 200 µM (inactive)	
CC1CCCCC1NC(=O)CCS(=O)(=O)c1ccc2c(c1)NC(=O)CO2 (stereo not given)	> 200 µM (inactive)	
CCCCn1c(NC(=O)c2ccco2)c(S(=O)(=O)c2ccc(C)cc2)c2nc3ccccc3nc21	> 200 µM (inactive)	
Cc1ccc(OCCCN2CCOCC2)cc1	> 200 µM (inactive)	
Cc1ccn2c(C(=O)CSc3ccc(Cl)cc3Cl)c(C)nc2c1	> 200 µM (inactive)	
S=c1[nH]nc(Cc2cccc3ccccc23)n1-c1ccccc1	> 200 µM (inactive)	
CCC(C)[C@H](NC(=O)N1CCn2c1nc1ccccc12)C(=O)NCCc1ccc(OC)c(OC)c1 (stereo not given in full)	> 200 µM (inactive)	
CC12CCC(C(=O)NCc3ccc(Cl)cc3)(OC1=O)C2(C)C (stereo not given)	> 200 µM (inactive)	
CN(Cc1c(C(=O)N/N=C/c2ccc(F)cc2)nnn1-c1nonc1N)C1CCCCC1	> 200 µM (inactive)	
Cc1cc(C)n(-c2ccc(Cl)c(C(=O)Nc3cc(C(F)(F)F)ccc3Cl)n2)n1	> 200 µM (inactive)	
Cc1ccccc1NC(=O)CN1C(=O)N/C(=C\c2ccccc2OCc2ccc(C(=O)O)cc2)C1=O	> 200 µM (inactive)	
CS(=O)(=O)N1CCN(c2ccc([N+](=O)[O-])c(SCc3ccco3)c2)CC1	> 200 µM (inactive)	
C=CCn1c(NS(=O)(=O)c2ccccc2)c(S(=O)(=O)c2ccc(C)cc2)c2nc3ccccc3nc21	> 200 µM (inactive)	
CCCCN(Cc1cc2cc(OC)ccc2[nH]c1=O)S(=O)(=O)c1ccc(C)cc1	> 200 µM (inactive)	
CCNc1ccc(C(=O)O)cc1N	inactive	
O=C(CCN1CCN(Cc2ccccc2)CC1)Nc1cccc(Cl)c1	> 200 µM (inactive)	
COc1cc(CC(=O)NCc2ccc3c(c2)OCO3)cc(OC)c1OC	> 200 µM (inactive)	
O=c1[nH]c(-c2ccc(F)cc2)nc2c1sc(=S)n2-c1ccccc1	> 200 µM (inactive)	
Cc1cc(Cl)ccc1NC(=O)CN1CCC(C(O)(c2ccccc2)c2ccccc2)CC1	> 200 µM (inactive)	
Cc1cc(C)n2ncc(C(=O)Nc3ccc4c(c3)OCO4)c2n1	> 200 µM (inactive)	
CCN(CC)c1ccc(/C=c2\sc3nnc(-c4ccccc4Cl)n3c2=O)cc1	> 200 µM (inactive)	
CCCCn1c(NS(=O)(=O)c2ccc(C)cc2)c(S(=O)(=O)c2ccccc2)c2nc3ccccc3nc21	> 200 µM (inactive)	
O=C(O)c1ccc(/C=N/NC(=O)c2ccc(CN3c4cccc5cccc(c45)S3(=O)=O)cc2)cc1	> 200 µM (inactive)	
O=c1[nH]c2ccc(S(=O)(=O)N3CCCCC3)cc2s1	> 200 µM (inactive)	
Cc1ccc(CNc2ccc(O)cc2)cc1	> 200 µM (inactive)	
CCCCNc1nnc(Cc2ccc(Cl)cc2)c(=O)[nH]1	> 200 µM (inactive)	
Cc1ccc(-n2cccn2)c([C@@H]2C[C@H]3CN(C)C(=O)[C@]34CCCN24)c1	> 200 µM (inactive)	
